This note sets out measurements from ChEMBL document CHEMBL1159301, “Isolation and absolute configuration of ent-Halimane diterpenoids from Hymenaea courbaril from the Suriname rain forest” (J Nat Prod, 2002).

In one test the test system is Saccharomyces cerevisiae. In words: DNA damaging activity against yeast 1138 mutant assessed as drug level required to produce 12 mm zone of inhibition. It counts as functional.
For another test, the system named is A2780. In words: Cytotoxicity against human A2780 cells after 48 hrs by alamar blue assay. It counts as functional, cell-based. Background: Resazurin is reduced to fluorescent resorufin, in cell work by metabolically active cells.

Activity calls are given as the source filed them. The rule behind the calls is not given here. Where only a bound is given, the exact number is not on record here.

Turning to `C=C[C@](C)(O)CC[C@]1(C)C2=CCC[C@](C)(C(=O)N[C@@H](C(=O)OC)c3ccccc3)[C@H]2CC[C@H]1C`, the result with Saccharomyces cerevisiae and in the test with A2780 was inactive.

Take `C=C[C@](C)(O)CC[C@]1(C)C2=CCC[C@](C)(C(=O)O)[C@H]2CC[C@H]1C`: the IC12 in the test on Saccharomyces cerevisiae was found to be 925 µg/mL. Moreover, in the test on A2780 (A2780, 48 h), the IC50 (as a rule, the concentration needed to halve the response being measured) was > 40 µg/mL.

`C=C[C@](C)(O)CC[C@]1(C)C2=CCC[C@](C)(C(=O)N[C@H](C(=O)OC)c3ccccc3)[C@H]2CC[C@H]1C`: the outcome with Saccharomyces cerevisiae and in the test on A2780 was inactive.

For `C=C[C@](C)(O)CC[C@]1(C)C2=CC(=O)C[C@](C)(C(=O)O)[C@H]2CC[C@H]1C`, the outcome in the test with Saccharomyces cerevisiae and in the test with A2780 was inactive.
